From publication PMC10971807 (Marine Drugs, 2024)
Where “and” joins values, the source holds several entries; their conditions need not be identical. Equal entries are not always repeated. Where a SMILES comes first, the peptide text is derived from it. Bridges are numbered along the chain shown (N, C = ends). [ ]: non-standard residue; d: D form. Dab = NCC[C@H](N)C(=O)O; Dap = NC[C@H](N)C(=O)O

Experiments:
hα9α10 nAChR = hα9α10 nAChR (Homo sapiens, UniProt Q9GZZ6+Q9UGM1); experiment: cell-based; settings: for IC50: IC50, inhibition of ACh-evoked currents at hα9α10 nAChRs
hα7 nAChR = hα7 nAChR (Homo sapiens, UniProt P36544); experiment: cell-based
hα3β2 nAChR = hα3β2 nAChR (Homo sapiens, UniProt P17787+P32297); experiment: cell-based
hα4β2 nAChR = hα4β2 nAChR (Homo sapiens, UniProt P17787+P43681); format: cell-based
hα4β4 nAChR = hα4β4 nAChR (Homo sapiens, UniProt P30926+P43681); format: cell-based
hα3β4 nAChR = hα3β4 nAChR (Homo sapiens, UniProt P30926+P32297); format: cell-based
Sequence of hα3β4 nAChR (P32297 32-505 limits assumed): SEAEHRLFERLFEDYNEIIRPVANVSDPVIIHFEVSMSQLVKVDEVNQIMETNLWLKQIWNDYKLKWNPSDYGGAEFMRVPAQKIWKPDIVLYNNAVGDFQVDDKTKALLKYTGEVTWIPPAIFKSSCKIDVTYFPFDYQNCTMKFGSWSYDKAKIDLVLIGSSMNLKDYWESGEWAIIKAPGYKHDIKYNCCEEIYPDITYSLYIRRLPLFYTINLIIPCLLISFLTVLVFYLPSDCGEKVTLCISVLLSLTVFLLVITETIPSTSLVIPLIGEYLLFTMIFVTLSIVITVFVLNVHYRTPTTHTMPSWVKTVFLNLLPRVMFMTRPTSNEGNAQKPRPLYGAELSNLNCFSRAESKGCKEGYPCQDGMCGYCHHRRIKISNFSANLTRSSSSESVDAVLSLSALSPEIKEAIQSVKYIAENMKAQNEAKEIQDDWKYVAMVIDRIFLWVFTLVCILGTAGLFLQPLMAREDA
Sequence of hα3β4 nAChR (P30926 22-498 limits assumed): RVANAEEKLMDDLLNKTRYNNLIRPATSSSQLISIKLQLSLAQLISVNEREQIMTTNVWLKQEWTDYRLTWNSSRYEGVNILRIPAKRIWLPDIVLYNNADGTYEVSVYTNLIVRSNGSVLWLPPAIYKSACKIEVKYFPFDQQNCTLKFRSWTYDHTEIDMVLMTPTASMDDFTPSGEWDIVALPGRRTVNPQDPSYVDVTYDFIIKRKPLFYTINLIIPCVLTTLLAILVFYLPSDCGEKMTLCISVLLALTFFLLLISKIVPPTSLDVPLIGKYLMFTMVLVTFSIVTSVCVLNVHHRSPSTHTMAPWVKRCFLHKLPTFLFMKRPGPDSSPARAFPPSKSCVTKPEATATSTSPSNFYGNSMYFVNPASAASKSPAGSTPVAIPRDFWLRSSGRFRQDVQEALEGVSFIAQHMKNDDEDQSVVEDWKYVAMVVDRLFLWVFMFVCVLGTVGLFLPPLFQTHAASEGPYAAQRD

Sequence of hα9α10 nAChR (Q9UGM1 26-479 limits assumed): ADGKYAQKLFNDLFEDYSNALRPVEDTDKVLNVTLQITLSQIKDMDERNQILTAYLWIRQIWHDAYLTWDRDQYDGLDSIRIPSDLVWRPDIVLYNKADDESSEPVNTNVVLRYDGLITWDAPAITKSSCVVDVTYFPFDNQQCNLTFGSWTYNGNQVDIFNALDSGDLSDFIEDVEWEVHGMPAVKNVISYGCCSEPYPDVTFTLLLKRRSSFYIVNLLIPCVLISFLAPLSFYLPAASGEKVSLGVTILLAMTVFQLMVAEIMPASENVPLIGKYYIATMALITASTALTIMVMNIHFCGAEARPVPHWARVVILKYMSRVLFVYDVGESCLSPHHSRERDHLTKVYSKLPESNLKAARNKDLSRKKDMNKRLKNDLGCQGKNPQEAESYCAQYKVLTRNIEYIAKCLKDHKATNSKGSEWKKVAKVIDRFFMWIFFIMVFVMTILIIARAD
Sequence of hα9α10 nAChR (Q9GZZ6 25-450 limits assumed): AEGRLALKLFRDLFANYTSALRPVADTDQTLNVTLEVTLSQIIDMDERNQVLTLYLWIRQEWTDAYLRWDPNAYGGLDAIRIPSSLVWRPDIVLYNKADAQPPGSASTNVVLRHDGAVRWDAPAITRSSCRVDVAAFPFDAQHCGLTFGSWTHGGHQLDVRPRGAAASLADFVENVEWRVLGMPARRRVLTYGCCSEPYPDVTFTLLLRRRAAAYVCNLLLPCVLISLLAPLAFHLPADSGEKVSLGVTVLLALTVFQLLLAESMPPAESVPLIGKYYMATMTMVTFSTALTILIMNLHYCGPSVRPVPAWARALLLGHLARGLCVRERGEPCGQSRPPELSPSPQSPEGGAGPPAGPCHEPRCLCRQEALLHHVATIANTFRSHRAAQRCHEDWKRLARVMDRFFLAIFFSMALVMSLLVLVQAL
Sequence of hα3β2 nAChR (P32297 32-505 limits assumed): as the sequence (P32297 32-505 limits assumed) above
Sequence of hα3β2 nAChR (P17787 26-502 limits assumed): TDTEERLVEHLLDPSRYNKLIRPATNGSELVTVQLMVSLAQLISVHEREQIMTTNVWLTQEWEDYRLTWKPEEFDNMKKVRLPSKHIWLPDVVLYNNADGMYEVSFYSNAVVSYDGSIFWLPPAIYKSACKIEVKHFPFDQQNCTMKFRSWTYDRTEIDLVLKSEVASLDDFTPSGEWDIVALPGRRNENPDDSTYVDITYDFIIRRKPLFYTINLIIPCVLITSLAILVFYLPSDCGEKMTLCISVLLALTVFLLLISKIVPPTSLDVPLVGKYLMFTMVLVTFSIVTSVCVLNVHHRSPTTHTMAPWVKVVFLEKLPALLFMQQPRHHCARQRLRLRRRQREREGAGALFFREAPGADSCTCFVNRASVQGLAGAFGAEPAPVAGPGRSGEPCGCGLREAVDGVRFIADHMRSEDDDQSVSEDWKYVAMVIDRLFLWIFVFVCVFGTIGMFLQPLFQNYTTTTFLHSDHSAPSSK
Sequence of hα4β2 nAChR (P43681 29-627 limits assumed): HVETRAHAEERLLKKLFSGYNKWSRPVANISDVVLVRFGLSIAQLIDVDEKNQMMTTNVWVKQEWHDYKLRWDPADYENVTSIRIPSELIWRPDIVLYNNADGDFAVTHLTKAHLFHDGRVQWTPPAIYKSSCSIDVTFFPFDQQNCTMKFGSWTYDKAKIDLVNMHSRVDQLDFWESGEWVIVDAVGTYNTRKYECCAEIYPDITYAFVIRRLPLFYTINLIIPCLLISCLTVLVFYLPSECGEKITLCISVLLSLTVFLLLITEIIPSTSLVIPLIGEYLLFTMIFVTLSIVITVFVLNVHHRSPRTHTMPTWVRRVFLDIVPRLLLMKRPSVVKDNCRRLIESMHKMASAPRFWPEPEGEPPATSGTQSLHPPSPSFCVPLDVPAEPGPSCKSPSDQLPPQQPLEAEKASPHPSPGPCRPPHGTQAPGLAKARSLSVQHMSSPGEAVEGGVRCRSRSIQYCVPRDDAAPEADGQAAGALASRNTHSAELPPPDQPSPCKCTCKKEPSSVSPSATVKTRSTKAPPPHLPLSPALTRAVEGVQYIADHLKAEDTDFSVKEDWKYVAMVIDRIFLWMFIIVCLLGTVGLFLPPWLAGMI
Sequence of hα4β2 nAChR (P17787 26-502 limits assumed): as the sequence (P17787 26-502 limits assumed) above
Sequence of hα4β4 nAChR (P43681 29-627 limits assumed): as the sequence (P43681 29-627 limits assumed) above
Sequence of hα4β4 nAChR (P30926 22-498 limits assumed): as the sequence (P30926 22-498 limits assumed) above
Sequence of hα7 nAChR (P36544 23-502 limits assumed): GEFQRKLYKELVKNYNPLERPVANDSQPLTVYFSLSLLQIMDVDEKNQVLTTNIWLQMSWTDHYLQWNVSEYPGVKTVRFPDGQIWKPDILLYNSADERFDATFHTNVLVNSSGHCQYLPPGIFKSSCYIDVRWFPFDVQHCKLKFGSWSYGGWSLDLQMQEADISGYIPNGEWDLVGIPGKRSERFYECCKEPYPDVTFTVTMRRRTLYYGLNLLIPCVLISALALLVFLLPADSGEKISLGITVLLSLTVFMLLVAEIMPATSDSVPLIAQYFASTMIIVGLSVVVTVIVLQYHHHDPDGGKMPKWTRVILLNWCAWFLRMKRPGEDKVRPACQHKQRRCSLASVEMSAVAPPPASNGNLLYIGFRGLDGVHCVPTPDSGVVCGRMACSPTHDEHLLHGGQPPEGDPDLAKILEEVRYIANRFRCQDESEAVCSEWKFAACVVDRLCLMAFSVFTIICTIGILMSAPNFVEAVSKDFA

CC(C)C[C@@H]1NC(=O)[C@H](CCC(=O)O)NC(=O)[C@@H]2CCCN2C(=O)[C@H](Cc2c[nH]cn2)NC(=O)[C@H](CC(N)=O)NC(=O)[C@H](C(C)C)NC(=O)[C@H](CO)NC(=O)[C@@H]2CSSC[C@H](NC(=O)CN)C(=O)N[C@@H](CSSC[C@@H](C(N)=O)NC1=O)C(=O)N[C@@H](CCN)C(=O)N[C@@H](Cc1c[nH]cn1)C(=O)N1CCC[C@H]1C(=O)N[C@@H](C)C(=O)N2 [PeIA[S4Dab]] (H-GCC[Dab]HPACSVNHPELC-NH2; disulfide 2-8, 3-16)
Enhancement of activity (IC50) at hα9α10 relative to PeIA (hα9α10 nAChR): ~ 4 fold
IC50 (hα9α10 nAChR): 5.32 nM and 5.3 nM

CC(C)C[C@@H]1NC(=O)[C@H](CCC(=O)O)NC(=O)[C@@H]2CCCN2C(=O)[C@H](Cc2c[nH]cn2)NC(=O)[C@H](CC(N)=O)NC(=O)[C@H](C(C)C)NC(=O)[C@H](CN)NC(=O)[C@@H]2CSSC[C@H](NC(=O)CN)C(=O)N[C@@H](CSSC[C@@H](C(N)=O)NC1=O)C(=O)N[C@@H](CN)C(=O)N[C@@H](Cc1c[nH]cn1)C(=O)N1CCC[C@H]1C(=O)N[C@@H](C)C(=O)N2 [PeIA[S4Dap, S9Dap]] (H-GCC[Dap]HPAC[Dap]VNHPELC-NH2; disulfide 2-8, 3-16)
IC50 (hα7 nAChR): 162 nM
IC50 (hα3β2 nAChR): 32.8 nM
Enhancement of activity (IC50) at hα9α10 relative to PeIA (hα9α10 nAChR): ~24 fold
Potency at hα9α10 relative to dimeric PeIA (hα9α10 nAChR): approximately two-fold
IC50 (hα9α10 nAChR): 0.93 nM

CC(C)C[C@@H]1NC(=O)[C@H](CCC(=O)O)NC(=O)[C@@H]2CCCN2C(=O)[C@H](Cc2c[nH]cn2)NC(=O)[C@H](CC(N)=O)NC(=O)[C@H](C(C)C)NC(=O)[C@H](CO)NC(=O)[C@@H]2CSSC[C@H](NC(=O)CN)C(=O)N[C@@H](CSSC[C@@H](C(N)=O)NC1=O)C(=O)N[C@@H](CN)C(=O)N[C@@H](Cc1c[nH]cn1)C(=O)N1CCC[C@H]1C(=O)N[C@@H](C)C(=O)N2 [PeIA[S4Dap]] (H-GCC[Dap]HPACSVNHPELC-NH2; disulfide 2-8, 3-16)
Enhancement of activity (IC50) at hα9α10 relative to PeIA (hα9α10 nAChR): ~13 fold
IC50 (hα9α10 nAChR): 1.74 nM

CC(C)C[C@@H]1NC(=O)[C@H](CCC(=O)O)NC(=O)[C@@H]2CCCN2C(=O)[C@H](Cc2c[nH]cn2)NC(=O)[C@H](CC(N)=O)NC(=O)[C@H](C(C)C)NC(=O)[C@H](CN)NC(=O)[C@@H]2CSSC[C@H](NC(=O)CN)C(=O)N[C@@H](CSSC[C@@H](C(N)=O)NC1=O)C(=O)N[C@@H](CO)C(=O)N[C@@H](Cc1c[nH]cn1)C(=O)N1CCC[C@H]1C(=O)N[C@@H](C)C(=O)N2 [PeIA[S9Dap]] (H-GCCSHPAC[Dap]VNHPELC-NH2; disulfide 2-8, 3-16)
Enhancement of activity (IC50) at hα9α10 relative to PeIA (hα9α10 nAChR): ~5 fold
IC50 (hα9α10 nAChR): 4.67 nM

CC(C)C[C@@H]1NC(=O)[C@H](CCC(=O)O)NC(=O)[C@@H]2CCCN2C(=O)[C@H](Cc2c[nH]cn2)NC(=O)[C@H](CC(N)=O)NC(=O)[C@H](C(C)C)NC(=O)[C@H](CO)NC(=O)[C@@H]2CSSC[C@H](NC(=O)CN)C(=O)N[C@@H](CSSC[C@@H](C(N)=O)NC1=O)C(=O)N[C@@H](CO)C(=O)N[C@@H](Cc1c[nH]cn1)C(=O)N1CCC[C@H]1C(=O)N[C@@H](C)C(=O)N2 [PeIA] (H-GCCSHPACSVNHPELC-NH2; disulfide 2-8, 3-16)
Inhibition of ACh-evoked currents at hα4β2 (hα4β2 nAChR): < 1%
Inhibition of ACh-evoked currents at hα4β4 (hα4β4 nAChR): < 1%
Inhibition of ACh-evoked currents at hα3β4 (hα3β4 nAChR): < 1%

CC(C)C[C@@H]1NC(=O)[C@H](CCC(=O)O)NC(=O)[C@@H]2CCCN2C(=O)[C@H](Cc2cnc[nH]2)NC(=O)[C@H](CC(N)=O)NC(=O)[C@H](C(C)C)NC(=O)[C@H](CO)NC(=O)[C@@H]2CSSC[C@H](NC(=O)CN)C(=O)N[C@@H](CSSC[C@@H](C(N)=O)NC1=O)C(=O)N[C@@H](CO)C(=O)N[C@@H](Cc1cnc[nH]1)C(=O)N1CCC[C@H]1C(=O)N[C@@H](C)C(=O)N2 [PeIA] (H-GCCSHPACSVNHPELC-NH2; disulfide 2-8, 3-16)
IC50 (hα3β2 nAChR): 59.8 nM
